One assay relates to 9 L gliosarcoma. The assay is described as follows: Survival of F344 rats intracranially implanted with 9 L gliosarcoma. The settings on record: for median survival: systemic treatment (ACF 5 mg/kg/daily from Day 0 or Day 5; oral temozolomide 50 mg/kg/day Days 5-9). The format is in vivo, rat.
The subject of assay [1] is glioma cell lines (9 L gliosarcoma, F98 glioma, U87, GB1A). Description: Acriflavine cytotoxicity in vitro, CCK-8 assay, all glioma cell lines tested. Type of assay: cell-based, rodent and human. The conditions noted are these: 24 h. The method, then:
(§1) The cytotoxicity of ACF was analyzed in rodent 9 L gliosarcoma (obtained from the Brain Tumor Research Center, University of California at San Francisco) and F98 glioma (a gift from R. Barth, Ohio State University) cell lines as well as in commercial and primary human glioblastoma cell lines, U87 (ATCC) and GB1A, respectively. The cells were plated in 96-well plates at a density of 4×10^3 cells/well, cultured for 24 h and treated with ACF (concentration range of 0.2 μM-25 μM). After co-incubation with ACF in medium for 24 h, cell growth was assessed using a CCK-8 assay (Dojindo, Kumamoto, Japan) according to manufacturers' protocol. Data are shown as mean+/−SEM and the inhibitory concentration 50% (IC50)+95% confidence interval and R^2 are reported.
(§2) The following concentrations of acriflavine: 0.0249 μM, 0.1245 μM, 0.249 μM, 2.5 μM, 25 μM, 50 μM, 500 μM, and 1000 μM were tested. CCK-8 assay was added to the wells, and the optical density was read at 450 nm by a microplate reader.
On the technique in general: Formazan colour is commonly taken as a measure of viable cells.

In assay [2] the test system is 9 L rat gliosarcoma cells. The assay is described as follows: Acriflavine cytotoxicity in vitro, CCK-8 assay, 9 L cells. Type of assay: cell-based. The settings on record: 9 L rat glioma cells, 24 h co-incubation, read-out: IC50 concentration, cell viability. The protocol:
as §1, §2

With “3,6-diamino-10-methylacridinium chloride mixed with 3,6-acridinediamine [ACF]”, the “survival benefit compared to the control” value in the assay with 9 L gliosarcoma (systemic ACF started on Day 0 or Day 5) is listed as “no benefit in survival”. In addition, in the assay on 9 L gliosarcoma, the median survival was 14 days. In addition, the inhibition of proliferation result in assay [1] is “inhibited proliferation in all glioma cell lines tested in a dose-dependent manner”. Besides, in assay [2], the IC50 was 1070 nM.
Take `Cn1nnc2c(C(N)=O)ncn2c1=O` [temozolomide, Temozolomide]: in the assay on 9 L gliosarcoma, the median survival is on record as 28 days.

For the origin of these results see US10195190B2, “Local delivery forms of acriflavine for treating tumors” (The Johns Hopkins University, priority 2015, dated 2019).
